Data as given in patent US20050118253A1, “Systemic delivery of serum stable plasmid lipid particles for cancer therapy” (Protiva Biotherapeutics, Inc., priority 1998, published 2005).

Test system: MCA-207 fibrosarcoma tumor cells
Assay: Growth of MCA-207 tumors (Example 11)
Type: in vivo, C57 mice
Details: ganciclovir with empty liposomes (data not shown)
Method: This example describes the treatment of tumors using the method of the invention. […] The general method is set out in FIG. 8.
24 female C57 mice were seeded with 100,000 MCA-207 fibrosarcoma tumor cells (provided by S. Rosenberg, National Cancer Institute, Frederick/Bethesda, MD) by intra-dermal injection on day zero. The tumor cells had been cultivated and prepared according to standard techniques using RPMI media with 10% Fetal Bovine Serum (see for example Current Protocols in Molecular Biology). Beginning on day 5, all animals were treated with the lipid/therapeutic nucleic acid formulation listed in the chart, supra. The formulation was delivered intravenously through the tail vein. 80 μg of pINEX-TK10 DNA were injected in a total volume of 200 μL. Treatments were administered on days 5, 7, 9, 11 and 13.
Beginning on day 5, all animals were treated with ganciclovir twice daily. 1 mg (˜50 mg/kg) were injected intra-peritoneally in a total volume of 200 μL PBS. Treatments continued twice daily for 12 days (see, FIG. 9(A)). Mice were monitored for tumor growth.

How did the Tumor reduction turn out when Nc1nc(O)c2ncn(COC(CO)CO)c2n1 [ganciclovir] was run?
Its Tumor reduction is “no effect”.
